Source: patent US9487818B2, “TOP2A inhibition by temozolomide and its predictive value of GBM patients survival” (COUNCIL OF SCIENTIFIC & INDUSTRIAL RESEARCH, priority 2010, dated 2016)

Experiments:
[1] = test system: U251 glioma cells; assay: Cell viability (MTT) assay in U251 cells transfected with TOP2A or cyclophilin siRNA; type: cell-based; details: MTT assay after 48 hrs
Method: At test for difference in the % viability of the control and TOP2A siRNA treated cells was estimated and the p values are shown: 2, 4, 8 and 16 μg/mL; p=0.0297, 0.0336, <0.0001 and 0.042 respectively.
The experiment was carried out as in “D” but the cells were treated with temozolomide. At test for difference in the % viability of the control and TOP2A siRNA treated cells was estimated and the p values are shown: 250, 500, 1000 and 2000 μM; p=0.0668, 0.0097, 0.0687 and 0.0134 respectively.
U373, U138, LN18, LN229, U343, U87, K562, U251 and SVG cells were cultured in DMEM respectively with 10% Fetal bovine serum, penicillin and streptomycin at 37° C. in a humidified atmosphere with 5% CO2. The human TOP2A and cyclophilin siRNA duplexes were designed and chemically synthesized by Dharmacon Research (Lafayette, Colo.). The SMARTpool siRNA is a mixture of four different siRNA duplexes targeting distinct coding region sequences of TOP2A (Genbank™ accession number NM_001067). […]
For chemosensitivity assays, 24 hours after plating, the cells were treated with the cytotoxic drugs and incubated at 37° C., 5% CO2 for 45 hours. […] Three hours after MTT addition, the formazan crystals were dissolved in DMSO (200 μl) and measured as absorbance at 550 nm. The absorbance by the control cells was considered to be 100% and all samples were normalized to the control cells. […]

[2] = test system: GBM patients; assay: Prospective cohort of GBM patients, survival (Kaplan Meier analysis); type: in vivo, human; details: for median survival: radiotherapy with temozolomide
Method: Kaplan-Meier survival estimates for 102 GBM patients are calculated for TOP2A transcript levels. Survival curves for the groups positive (log 2 ratio≧9.25; n=34) and negative (log 2 ratio<9.25; n=68) for TOP2A in univariate analysis.
Newly diagnosed glioblastoma patients (n=102) who underwent surgery in the two clinical centers (NIMHANS/SSIHMS) were prospectively included. Approval by the ethics committee and patient consent were obtained prior to initiation of the study. The patients were recruited based on the following inclusion criteria: 1) Adult patients (age between 18 to 65 years) with a supratentorial lobar tumor 2) Patients who underwent maximal safe resection of the tumor with minimal residue noted on post operative MRI scan 3) Patients with post operative Karnofsky's Performance Score (KPS)≧70.
All patients underwent maximal safe resection of the tumor. All patients underwent uniform adjuvant therapy consisting of radiotherapy, administered with a total dose of 59.4 Gy, given in 33 fractions, along with concomitant chemotherapy with temozolamide, administered at the dose of 100 mg/day which was continued daily for 45 days. Subsequently, five cycles of cyclical chemotherapy with temozolamide at the dose of 150 mg/sq. m body surface area for 5 days every 28 days was administered. The patients were followed up clinically and with MR imaging. The maximum follow up period was 34 months.
A cohort of 102 patients of GBM were prospectively recruited and managed by standard treatment protocol (as explained in methods). […] In this cohort, as expected, age was an important predictor of poor outcome as noted by Cox regression analysis (p=0.037; HR=1.023; B=0.022). […] The effect of TOP2A transcript level and age on survival was further evaluated by Cox proportional hazard model to elicit the independent effect of TOP2A on survival. It was noted that both age (p=0.033; HR=1.023; B=0.023) and TOP2A transcript level (p=0.035; HR=0.888; B=−0.119) were significant predictors by multivariate analysis. […]

Row | Structure (SMILES) | sensitivity of TOP2A siRNA transfected cells in comparison to cyclophilin siRNA transfected cells [1] | median overall survival ([2]; 102 GBM patients, resection, radiotherapy with concomitant and cyclical adjuvant temozolomide) [months] | median survival ([2]; patients with TOP2A mRNA levels <9.25 log 2 ratio) [months] | median survival ([2]; patients with TOP2A mRNA levels ≧9.25 log 2 ratio) [months]
1 | COc1cc([C@@H]2c3cc4c(cc3[C@@H](O[C@@H]3O[C@@H]5CO[C@@H](C)O[C@H]5[C@H](O)[C@H]3O)[C@H]3COC(=O)[C@H]23)OCO4)cc(OC)c1O [etoposide] | less efficiently |  |  | 
2 | Cn1nnc2c(C(N)=O)ncn2c1=O [temozolomide] |  | 16 | 13 | 22
